Three compounds from patent publication US20040248209A1, “Use of g protein-coupled receptor protein” (priority 2001, published 2004) can be followed below.

Holding throughout (format): cell-based
Test [1] deals with T1, H7TMB56 (Homo sapiens, UniProt Q96LA9).
T1 construct: expressed in transfected cells
Description: CRE promoter luciferase reporter gene assay in HEK293 cells transiently expressing H7TMB56. Particulars: HEK293 cells bearing the H7TMB56 gene (SEQ ID NO: 2) versus other receptor control; 2×10^−4 to 10^−5 M; 4 hours; FIGS. 5 to 7. The text has this: The H7TMB56-specific stimulating activity by the isoprenoid-related substances was detected using as an indicator the expression level of reporter gene product (luciferase) produced by expression induction of CRE promoter.
HEK293 cells were suspended in growth medium (DMEM (Dulbecco's Modified Eagle Medium) (Gibco BRL) supplemented with 10% fetal bovine serum (Gibco BRL)) and plated on a 96-well plate of black well (Beckton-Dickinson, Inc.) coated with collagen in 1×10^5 cells/well. […]
The transfected HEK293 cells were washed with an assay buffer (DMEM supplemented with 0.1 % bovine serum albumin), and commercially available compounds containing farnesyl pyrophosphate (Sigma) and geranylgeranyl pyrophosphate (Sigma) diluted with the assay buffer were added to the cells, respectively, in 2×10^−4 to 10^−5 M, followed by incubation at 37° C. for 4 hours in 5% CO2. After the supernatant was discarded, 50 μl of PicaGene LT2.0 (Toyo Ink Mfg. Co., Ltd.) was added as a substrate for assaying the luciferase activity and a luminescence level of the luciferase was measured on a plate reader (ARVO sx Multi-Label Counter, Wallac, Inc.).
A general note: In a reporter assay the amount or activity of a reporter protein is the signal.

For test [2], the target named is T1, H7TMB56. Description: intracellular cAMP production promoting activity in CHO cells stably expressing H7TMB56 (clone 22) versus mock cells. Particulars: for intracellular cAMP production promoting activity, dose dependency: CHO cell clone highly expressing H7TMB56, FIG. 13; for agonist activity to H7TMB56 (cAMP production), specificity and dose dependency: CHO clone 22 versus mock cells, FIGS. 8 and 9; for cAMP production promoting activity (specific agonist activity): dose of 10 μM, H7TMB56 CHO cells (FIG. 10) versus mock cells (FIG. 11). The procedure:
The same expression vector as used in EXAMPLE 1 was transfected to CHO dhfr^− cells using Gene Transfer (Wako Pure Chemical Industries, Ltd.), which was cultured in nucleic acid-free medium to select transformants. […] The intracellular cAMP level was assayed using cAMP Screen Kit (Applied Biosystems, Inc.). […] Furthermore, the cAMP production promoting activities on H7TMB56 (FIG. 10) and mock cells (FIG. 11) were assayed with respect to various isoprenoid-related substances in a dose of 10 μM (1: isopentenyl pyrophosphate, 2: dimethylallyl pyrophosphate, 3: geranyl pyrophosphate, 4: farnesyl pyrophosphate, 5: geranylgeranyl pyrophosphate, 6: geraniol, 7: farnesol, 8: geranylgeraniol, 9: trans, trans-farnesol, 10: trans, trans-farnesyl bromide, 11: geranyl acetone, 12: geranyl acetate, 13: geranylamine and 14: geranyl chloride). As a result, the agonist activity specific to geranyl pyrophosphate was detected as well, in addition to farnesyl pyrophosphate and geranylgeranyl pyrophosphate (FIG. 10).
In a manner similar to EXAMPLE 2, the intracellular cAMP production promoting activity was assayed on 5 isoprenoid-related substances.

The target in test [3] is T1, H7TMB56. Nature of the test: activation (phosphorylation) of p44/42 MAP kinase in H7TMB56 expression CHO cells versus mock cells, western blotting. The note with it: 0.1 μM, 0, 5, 10 minutes, FIG. 14. The procedure: H7TMB56 expression CHO cells and mock cells were plated on a 6-well plate in 3×10^5 cells/well, followed by incubation overnight. In order to make serum free, the medium was replaced by nucleic acid-free α-MEM medium supplemented with 0.1% BSA and incubation was further continued overnight. Immediately before the assay, pre-incubation was again carried out for 2 hours. After 0.1 μM of farnesyl pyrophosphate was added to the medium to initiate the treatment, the medium was removed by suction at regular time intervals and then a sample buffer for SDS-PAGE was added to terminate the reaction. SDS-PAGE was performed in a conventional manner to transfer the protein onto a nitrocellulose filter. Thereafter, phosphorylated p44/42 MAP kinase was detected following the instructions described in the manual of PhosphoPlus p44/42 MAPK (Thr202/Tyr204) Antibody Kit (Cell Signaling, Inc.).
On the technique in general: Immunoblotting shows a protein as a band on a membrane.

Test [4] deals with T1, H7TMB56. Description: internalization of H7TMB56-GFP fused protein in CHO cells, confocal microscope. The note with it: 10^−6 M added to the medium. The text has this: An expression plasmid was constructed to express a fused protein of Green Fluorescent Protein (GFP) cDNA isolated from jelly fish Auquorea victoria, fused to H7TMB56 at the C-terminus to fit the translation frame. In this case, a fragment excised out of GFP expression vector pQBI25 (Takara Shuzo Co., Ltd.) was used as GFP cDNA. In H7TMB56, its termination codon was modified by PCR to recognition sequence with restriction enzyme NheI, and the GFP fragment was ligated thereto, which was inserted into the expression vector pAKKO-111H described in EXAMPLE 1. The thus obtained plasmid of the H7TMB56 and GFP -fused protein expression vector was transfected to CHO cells by the following procedure. CHO cells were suspended in a growth medium [DMEM (Dulbecco's Modified Eagle Medium) (GIBCO BRL, Inc.) supplemented with 10% fetal bovine serum, and plated on a Lab-Tekii cover glass chamber with 4 chambers (Nalgen Nunc, Inc.) in a concentration of 0.6×10^5 cells/chamber. After incubation overnight at 37° C. in 5% CO2, transfection was performed. For transfection, Lipofectamine™ 2000 Reagent (GIBCO BRL, Inc., Inc.) was used. First, 2 μl of Lipofectamine™ 2000 Reagent was mixed with 50 μl of OPTI-MEM-I (GIBCO BRL, Inc.). […]

T1 sequence (Q96LA9 whole entry): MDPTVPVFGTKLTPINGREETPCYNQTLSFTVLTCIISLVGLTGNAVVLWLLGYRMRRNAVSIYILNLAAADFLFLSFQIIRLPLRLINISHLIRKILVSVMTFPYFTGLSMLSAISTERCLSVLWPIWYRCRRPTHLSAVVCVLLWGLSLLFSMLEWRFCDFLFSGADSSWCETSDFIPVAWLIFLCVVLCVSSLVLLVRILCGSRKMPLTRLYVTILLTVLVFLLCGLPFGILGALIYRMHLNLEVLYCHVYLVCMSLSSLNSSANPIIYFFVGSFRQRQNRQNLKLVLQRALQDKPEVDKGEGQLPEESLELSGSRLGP

On to `CC(C)=CCC/C(C)=C/CC/C(C)=C/COP(=O)(O)OP(=O)(O)O` [farnesyl pyrophosphate], for which the “luciferase activity (expression level of reporter gene product by CRE promoter)” value on H7TMB56 [1] is on record as “increased”. For the same compound, on H7TMB56 [2], the “intracellular cAMP production promoting activity, dose dependency” value was “promoted the production of cAMP dose-dependently”; the “agonist activity to H7TMB56 (cAMP production), specificity and dose dependency” value is reported as “confirmed the specificity in the agonist activities”; the “cAMP production promoting activity (specific agonist activity)” value was “detected”. Further, the “phosphorylation of p44/42 MAP kinase” value on H7TMB56 [3] was “phosphorylation of MAP kinase was detected”. In addition, the “internalization of H7TMB56-GFP from cell membrane to cytoplasm” value at H7TMB56 [4] is “internalization occurred”.

For `CC(C)=CCC/C(C)=C/CC/C(C)=C/CC/C(C)=C/COP(=O)(O)OP(=O)(O)O` [geranylgeranyl pyrophosphate], at H7TMB56 [1], the “luciferase activity (expression level of reporter gene product by CRE promoter)” value is given as “increased”. Further, on H7TMB56 [2], the “intracellular cAMP production promoting activity, dose dependency” value was “promoted the production of cAMP dose-dependently”; the “agonist activity to H7TMB56 (cAMP production), specificity and dose dependency” value was “confirmed the specificity in the agonist activities”; the “cAMP production promoting activity (specific agonist activity)” value was “detected”.

For the compound `CC(C)=CCC/C(C)=C/COP(=O)(O)OP(=O)(O)O` [geranyl pyrophosphate], at H7TMB56 [2], the “intracellular cAMP production promoting activity, dose dependency” value was “promoted the production of cAMP dose-dependently” and the “cAMP production promoting activity (specific agonist activity)” value is “detected”.
